Measured values taken from patent US9302999B2, “Substituted triazoles as herbicides” (E. I. DU PONT DE NEMOURS AND COMPANY, priority 2012, dated 2016).

How the values were obtained:
Type in all cases: in vivo
[1] = tested on: smallflower umbrella sedge (CYPDI, Cyperus difformis); assay: Test G paddy, alone and in combination: smallflower umbrella sedge; conditions: evaluated after 14 days
Procedure: (§1) Seeds of smallflower umbrella sedge (CYPDI, Cyperus difformis) and ducksalad (HETLI, Heteranthera limosa) were sown on the soil surface in two separate quadrants of 11 cm tubs filled with steam pasteurized Tama soil. Simultaneously, plantings of barnyardgrass (ECHCG, Echinochloa crus-galli) and japonica rice (ORYSP, Oryza sativa) were established in separate “plug” flats. Plants were grown in a greenhouse using supplemental lighting to maintain a photoperiod of approximately 16 h; daytime and nighttime temperatures were approximately 27-30° C. and 19-22° C., respectively. After 8 days, barnyardgrass plants were transplanted to one of the remaining quadrants of the tub, and the water level was adjusted to a final depth of 3 cm. Herbicide application timing was targeted at the 2.0 to 2.5 leaf stage and the plants were treated with test chemicals formulated in a non-phytotoxic solvent. Treated plants and controls were maintained in a greenhouse for 14 days, after which time all species were compared to controls and visually evaluated. Plant response ratings are summarized in Tables G1 through G3, and are based on a scale of 0 to 100 where 0 is no effect and 100 is complete control. A dash (-) response means no test result.

[2] = tested on: ducksalad (HETLI, Heteranthera limosa); assay: Test G paddy, alone and in combination: ducksalad; conditions: evaluated after 14 days
Procedure: as §1

[3] = tested on: dayflower, (VA) (Virginia dayflower, Commelina virginica); assay: Test E pre-/postemergence: dayflower, (VA); conditions: scale 0 to 100
Text: (§2) Seeds of plant species selected from corn (Zea mays), soybean (Glycine max), velvetleaf (Abutilon theophrasti), lambsquarters (Chenopodium album), poinsettia, wild (wild poinsettia, Euphorbia heterophylla), pigweed, palmer (palmer pigweed, Amaranthus palmeri), waterhemp (common waterhemp, Amaranthus rudis), smartweed (ladysthumb smartweed, Polygonum persicaria), surinam grass (Brachiaria decumbens), crabgrass, large (large crabgrass, Digitaria sanguinalis), crabgrass, Brazil (Brazilian crabgrass, Digitaria horizontalis), panicum, fall (fall panicum, Panicum dichotomiflorum), foxtail, giant (giant foxtail, Setaria faberii), foxtail, green (green foxtail, Setaria viridis), goosegrass (Eleusine indica), johnsongrass (Sorghum halepense), ragweed (common ragweed, Ambrosia elation), barnyardgrass (Echinochloa crus-galli), sandbur (southern sandbur, Cenchrus echinatus), arrowleaf sida (Sida rhombifolia), ryegrass, Italian (Italian ryegrass, Lolium multiflorum), dayflower, (VA) (Virginia dayflower, Commelina virginica), field bindweed (Convolvulus arvensis), cocklebur (common cocklebur, Xanthium strumarium), morningglory (Ipomoea coccinea), nightshade (eastern black nightshade, Solanum ptycanthum), kochia (Kochia scoparia), nutsedge, yellow (yellow nutsedge, Cyperus esculentus) and beggarticks (hairy beggarticks, Bidens pilosa) were planted into a silt loam soil and treated preemergence with test chemicals formulated in a non-phytotoxic solvent mixture which included a surfactant. At the same time, plants selected from these crop and weed species were planted in pots containing a growing medium comprising spaghnum peat moss, vermiculite, wetting agent and starter nutrients and treated with postemergence applications of some of the test chemicals formulated in the same manner. Plants ranged in height from 2 to 18 cm for postemergence treatments (1- to 4-leaf stage).
(§3) Treated plants and controls were maintained in a greenhouse for 14 to 21 days, after which time all species were compared to controls and visually evaluated. Plant response ratings, summarized in Table E, are based on a scale of 0 to 100 where 0 is no effect and 100 is complete control. A dash (-) response means no test result.

[4] = tested on: barnyardgrass (ECHCG, Echinochloa crus-galli); assay: Test G paddy, alone and in combination: barnyardgrass; conditions: evaluated after 14 days
Procedure: as §1

[5] = tested on: japonica rice (ORYSP, Oryza sativa); assay: Test G paddy, alone and in combination: japonica rice; conditions: evaluated after 14 days
Procedure: as §1

[6] = tested on: morningglory (Ipomoea coccinea); assay: Test E pre-/postemergence: morningglory; conditions: Preemergence, scale 0 to 100
Text: as §2, §3

[7] = tested on: waterhemp_RES1 (ALS/Triazine resistant common waterhemp, Amaranthus rudis); assay: Test F postemergence: waterhemp_RES1; conditions: scale 0 to 100
Text: (§4) Seeds of plant species selected from corn (Zea mays), soybean (Glycine max), velvetleaf (Abutilon theophrasti), lambsquarters (Chenopodium album), poinsettia, wild (wild poinsettia, Euphorbia heterophylla), pigweed, palmer (palmer pigweed, Amaranthus palmeri), waterhemp (common waterhemp, Amaranthus rudis), surinam grass (Brachiaria decumbens), crabgrass, Brazil (Brazilian crabgrass, Digitaria horizontalis), panicum, fall (fall panicum Panicum dichotomiflorum), crabgrass, large (large crabgrass, Digitaria sanguinalis), foxtail, giant (giant foxtail, Setaria faberii), foxtail, green (green foxtail Setaria viridis), goosegrass (Eleusine indica), ragweed (common ragweed, Ambrosia elatior), barnyardgrass (Echinochloa crus-galli), sandbur (southern sandbur, Cenchrus echinatus), arrowleaf sida (Sida rhombifolia), ryegrass, Italian (Italian ryegrass, Lolium multiflorum), dayflower, VA (Virginia (VA) dayflower, Commelina virginica), field bindweed (Convolvulus arvensis), cocklebur (common cocklebur, Xanthium strumarium), morningglory (Ipomoea coccinea), nightshade (eastern black nightshade, Solanum ptycanthum), kochia (Kochia scoparia), nutsedge, yellow (yellow nutsedge, Cyperus esculentus), johnsongrass (Sorghum halepense), smartweed (ladysthumb smartweed, Polygonum persicaria), and beggarticks (hairy beggarticks, Bidens pilosa), were planted into a silt loam soil and treated preemergence with test chemicals formulated in a non-phytotoxic solvent mixture which included a surfactant. At the same time, plants selected from these crop and weed species and also pigweed (Amaranthus retroflexus), waterhemp_RES1 (ALS/Triazine resistant common waterhemp, Amaranthus rudis) and waterhemp_RES2 (ALS/HPPD resistant common waterhemp, Amaranthus rudis) were planted in pots containing a planting medium comprising spaghnum peat moss, vermiculite, wetting agent and starter nutrients treated with postemergence applications of some of the test chemicals formulated in the same manner. Plants ranged in height from 2 to 18 cm for postemergence treatments (1- to 4-leaf stage).
as §3

[8] = tested on: waterhemp_RES2 (ALS/HPPD resistant common waterhemp, Amaranthus rudis); assay: Test F postemergence: waterhemp_RES2; conditions: scale 0 to 100
Text: as §4, §3

Waterhemp = assay: Test C preemergence: waterhemp; conditions: scale 0 (no effect) to 100 (complete control)

## Cc1nn(-c2ccc(F)cc2)nc1Cc1ccnc(C(F)(F)F)c1 [Compound 16, 4-[[2-(4-fluorophenyl)-5-methyl-2H-1,2,3-triazol-4-yl]methyl]-2-(trifluoromethyl)pyridine]
[1]; Rate 8 g/ha
  CYPDI plant response rating (scale of 0 to 100): 85
[1]; Rate 16 g/ha
  CYPDI plant response rating (scale of 0 to 100): 85
[2]; Rate 8 g/ha
  HETLI plant response rating (scale of 0 to 100): 0
[2]; Rate 16 g/ha
  HETLI plant response rating (scale of 0 to 100): 60
[3]; Preemergence, 8 g ai/ha
  Plant response rating: Dayflower, VA: 0
[3]; Preemergence, 16 g ai/ha
  Plant response rating: Dayflower, VA: 0
[3]; Preemergence, 31 g ai/ha
  Plant response rating: Dayflower, VA: 35
[3]; Preemergence, 62 g ai/ha
  Plant response rating: Dayflower, VA: 50
[3]; Preemergence, 125 g ai/ha
  Plant response rating: Dayflower, VA: 85
[4]; Rate 8 g/ha
  ECHCG plant response rating (scale of 0 to 100): 25
[4]; Rate 16 g/ha
  ECHCG plant response rating (scale of 0 to 100): 35
[5]; Rate 8 g/ha
  ORYSP plant response rating (scale of 0 to 100): 10
[5]; Rate 16 g/ha
  ORYSP plant response rating (scale of 0 to 100): 15

## Cc1nn(-c2ccc(C(F)(F)F)cc2)nc1Cc1ccnc(C(F)(F)F)c1 [Compound 47, 4-[[5-methyl-2-[4-(trifluoromethyl)phenyl]-2H-1,2,3-triazol-4-yl]methyl]-2-(trifluoromethyl)pyridine]
[3]; Postemergence, 250 g ai/ha
  Plant response rating: Dayflower, VA: 30
[3]; Postemergence, 16 g ai/ha
  Plant response rating: Dayflower, VA: 10
[3]; Postemergence, 31 g ai/ha
  Plant response rating: Dayflower, VA: 10
[3]; Postemergence, 62 g ai/ha
  Plant response rating: Dayflower, VA: 20
[3]; Postemergence, 125 g ai/ha
  Plant response rating: Dayflower, VA: 25
[6]; 16 g ai/ha
  Plant response rating: Morningglory: 15
[6]; 31 g ai/ha
  Plant response rating: Morningglory: 30
[6]; 62 g ai/ha
  Plant response rating: Morningglory: 35
[6]; 125 g ai/ha
  Plant response rating: Morningglory: 40
[6]; 250 g ai/ha
  Plant response rating: Morningglory: 65

## Cc1nn(-c2ccc(F)cc2)nc1Oc1ccnc(C(F)(F)F)c1 [Compound 129, 4-[[2-(4-fluorophenyl)-5-methyl-2H-1,2,3-triazol-4-yl]oxy]-2-(trifluoromethyl)pyridine]
[1]; Rate 16 g/ha
  CYPDI plant response rating (scale of 0 to 100): 0
[1]; Rate 31 g/ha
  CYPDI plant response rating (scale of 0 to 100): 75
[1]; Rate 32 g/ha
  CYPDI plant response rating (scale of 0 to 100): 48
[2]; Rate 16 g/ha
  HETLI plant response rating (scale of 0 to 100): 0
[2]; Rate 31 g/ha
  HETLI plant response rating (scale of 0 to 100): 40
[2]; Rate 32 g/ha
  HETLI plant response rating (scale of 0 to 100): 25
[6]; 8 g ai/ha
  Plant response rating: Morningglory: 0
[6]; 16 g ai/ha
  Plant response rating: Morningglory: 0
[6]; 31 g ai/ha
  Plant response rating: Morningglory: 0
[6]; 62 g ai/ha
  Plant response rating: Morningglory: 40
[6]; 125 g ai/ha
  Plant response rating: Morningglory: 50
[4]; Rate 16 g/ha
  ECHCG plant response rating (scale of 0 to 100): 0
[4]; Rate 31 g/ha
  ECHCG plant response rating (scale of 0 to 100): 15
[4]; Rate 32 g/ha
  ECHCG plant response rating (scale of 0 to 100): 5
[5]; Rate 16 g/ha
  ORYSP plant response rating (scale of 0 to 100): 0
[5]; Rate 31 g/ha
  ORYSP plant response rating (scale of 0 to 100): 5
[5]; Rate 32 g/ha
  ORYSP plant response rating (scale of 0 to 100): 10

## Cc1nn(-c2ccc(F)c(F)c2)nc1Oc1ccnc(C(F)(F)F)c1 [Compound 145]
[7]; 125 g ai/ha
  Plant response rating, Waterhemp, Res1: 90
[8]; 125 g ai/ha
  Plant response rating, Waterhemp, Res2: 85

## Cc1nn(-c2ccc(C(F)(F)F)c(F)c2)nc1Cc1ccnc(C(F)(F)F)c1 [Compound 162]
[7]; 4 g ai/ha
  Plant response rating, Waterhemp, Res1: 70
[7]; 8 g ai/ha
  Plant response rating, Waterhemp, Res1: 90
[7]; 16 g ai/ha
  Plant response rating, Waterhemp, Res1: 90
[7]; 31 g ai/ha
  Plant response rating, Waterhemp, Res1: 95
[7]; 62 g ai/ha
  Plant response rating, Waterhemp, Res1: 95
[8]; 4 g ai/ha
  Plant response rating, Waterhemp, Res2: 75
[8]; 8 g ai/ha
  Plant response rating, Waterhemp, Res2: 90
[8]; 16 g ai/ha
  Plant response rating, Waterhemp, Res2: 90
[8]; 31 g ai/ha
  Plant response rating, Waterhemp, Res2: 95
[8]; 62 g ai/ha
  Plant response rating, Waterhemp, Res2: 100

## CCc1nn(-c2ccc(F)cc2)nc1Oc1ccnc(C(F)(F)F)c1 [Compound 166]
Waterhemp; 31 g ai/ha
  Plant response rating, Waterhemp: 55

## CCOc1nn(-c2ccc(Br)cc2)nc1Cc1ccnc(C(F)(F)F)c1 [Compound 189]
Waterhemp; 16 g ai/ha
  Plant response rating, Waterhemp: 90
Waterhemp; 31 g ai/ha
  Plant response rating, Waterhemp: 98
